Data taken from patent publication US6916812B2, “Alpha-aminoamide derivatives as melanocortin agonists” (Bristol-Myers Squibb Company, priority 2001, dated 2005).
Where two headings read alike, the source gives them in different places.

Biological target: T1, cloned human MC4R (Homo sapiens, UniProt P32245)
T1 construct: made in house; host or cells: Hi5 insect cells (baculovirus infection); membrane preparation
Assay: Membrane binding assay: competitive inhibition of [125I]NDP-α-MSH binding
Details: for inhibition at 10 µM: read-out: Displacement Rate (%) (at 10 μM)

[1] = at 10 μM, [125I]NDP-α-MSH displacement

T1 sequence (P32245 whole entry): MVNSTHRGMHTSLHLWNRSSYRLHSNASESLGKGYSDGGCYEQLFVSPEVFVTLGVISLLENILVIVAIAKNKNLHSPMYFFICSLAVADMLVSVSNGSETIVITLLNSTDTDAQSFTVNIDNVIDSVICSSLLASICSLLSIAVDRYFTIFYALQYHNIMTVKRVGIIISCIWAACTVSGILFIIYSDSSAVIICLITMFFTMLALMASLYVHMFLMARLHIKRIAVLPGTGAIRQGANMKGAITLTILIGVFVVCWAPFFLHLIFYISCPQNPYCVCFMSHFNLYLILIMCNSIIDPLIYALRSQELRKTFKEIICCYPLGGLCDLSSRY

inhibition at 10 µM [1]	IC50 (read-out: MC4R IC50)	Displacement Rate (%) (at 10 μM) [1]	IC50	inhibition at 10 µM	SMILES
91 to 100%	< 1500 nM				CCN[C@@H](Cc1ccc(OCc2ccccc2)cc1)C(=O)N1CCN(Cc2cccc(Cl)c2Cl)CC1 [Example 166]
91 to 100%	< 1500 nM				N[C@@H](Cc1ccc(OCc2ccccc2)cc1)C(=O)N1CCN(Cc2ccc(-c3ccccc3)cc2)CC1 [Example 95]
71 to 90%	1500 to 3000 nM				CCCCCCCN1CCN(C(=O)[C@@H](N)Cc2ccc(OCc3ccccc3)cc2)CC1 [Example 122]
	> 3000 nM	++ (++ = 71-90)			COc1ccc(COc2ccc(C[C@H](N)C(=O)N3CCN(Cc4cccc(Cl)c4Cl)CC3)cc2)cc1 [Example 225]
91 to 100%	< 1500 nM				CN(C)CCCN[C@@H](Cc1ccc(OCc2ccccc2)cc1)C(=O)N1CCN(Cc2cccc(Cl)c2Cl)CC1 [Example 174]
71 to 90%	1500 to 3000 nM				COc1cc(OC)c(CN2CCCN(C(=O)[C@@H](N)Cc3ccc(OCc4ccccc4)cc3)CC2)cc1Br [Example 31]
			> 3000 nM	35 to 70%	N[C@@H](Cc1ccc(OCc2ccccc2)cc1)C(=O)N1CCCN(Cc2ccc(Br)cc2)CC1 [Example 56]
	1500 to 3000 nM	+++ (+++ = 91-100)			COc1cccc(COc2ccc(C[C@H](N)C(=O)N3CCN(Cc4cccc(Cl)c4Cl)CC3)cc2)c1 [Example 203]
	1500 to 3000 nM	++ (++ = 71-90)			COc1ccc(CCCOc2ccc(C[C@H](N)C(=O)N3CCN(Cc4cccc(Cl)c4Cl)CC3)cc2)cc1 [Example 264]
	1500 to 3000 nM				Cc1ccccc1Oc1ccc(C[C@H](N)C(=O)N2CCN(Cc3cccc(Cl)c3Cl)CC2)cc1 [Example 348]
91 to 100%	< 1500 nM				N[C@@H](Cc1ccc(OCc2ccccc2)cc1)C(=O)N1CCN(Cc2ccc3c(c2)Cc2ccccc2-3)CC1 [Example 83]
35 to 70%	> 3000 nM				N[C@@H](Cc1ccc(OCc2ccccc2)cc1)C(=O)N1CCCN(Cc2cccc3ccccc23)CC1 [Example 47]
	> 3000 nM	++ (++ = 71-90)			N[C@@H](Cc1ccc(OCc2c3ccccc3cc3ccccc23)cc1)C(=O)N1CCN(Cc2cccc(Cl)c2Cl)CC1 [Example 232]
	< 1500 nM	+++ (+++ = 91-100)			N[C@@H](Cc1ccc(OCCc2ccc(F)cc2)cc1)C(=O)N1CCN(Cc2cccc(Cl)c2Cl)CC1 [Example 247]
71 to 90%	> 3000 nM				Nc1cccc(-c2ccc(C[C@H](N)C(=O)N3CCN(Cc4cccc(Cl)c4Cl)CC3)cc2)c1 [Example 333]
91 to 100%	< 1500 nM				Cc1ccc(-c2ccc(C[C@H](N)C(=O)N3CCN(Cc4cccc(Cl)c4Cl)CC3)cc2)cc1 [Example 290]
71 to 90%	1500 to 3000 nM				CC(C)(C)c1ccc(CN2CCCN(C(=O)[C@@H](N)Cc3ccc(OCc4ccccc4)cc3)CC2)cc1 [Example 39]
35 to 70%	> 3000 nM				N[C@@H](Cc1ccc(OCc2ccccc2)cc1)C(=O)N1CCN(Cc2ccccc2)CC1 [Example 141]
35 to 70%	> 3000 nM				CCCCCCCN1CCCN(C(=O)[C@@H](N)Cc2ccc(OCc3ccccc3)cc2)CC1 [Example 46]

inhibition at 10 µM [1]	IC50 (read-out: MC4R IC50)	Displacement Rate (%) (at 10 μM) [1]	IC50	inhibition at 10 µM	SMILES
71 to 90%	1500 to 3000 nM				COc1ccc2ccccc2c1CN1CCCN(C(=O)[C@@H](N)Cc2ccc(OCc3ccccc3)cc2)CC1 [Example 43]
35 to 70%	> 3000 nM				Cc1cccc(CN2CCCN(C(=O)[C@@H](N)Cc3ccc(OCc4ccccc4)cc3)CC2)n1 [Example 69]
35 to 70%	> 3000 nM				N[C@@H](Cc1ccc(OCc2ccccc2)cc1)C(=O)N1CCCN(C2CCN(Cc3ccccc3)CC2)CC1 [Example 73]
	< 1500 nM	+++ (+++ = 91-100)			N[C@@H](Cc1ccc(OCc2cccc(Oc3ccccc3)c2)cc1)C(=O)N1CCN(Cc2cccc(Cl)c2Cl)CC1 [Example 193]
91 to 100%	> 3000 nM				N[C@@H](Cc1ccc(OCc2ccccc2)cc1)C(=O)N1CCCN(CC(c2ccccc2)c2ccccc2)CC1 [Example 23]
71 to 90%	> 3000 nM				N[C@@H](Cc1ccc(-c2ccc(C(=O)O)cc2)cc1)C(=O)N1CCN(Cc2cccc(Cl)c2Cl)CC1 [Example 329]
71 to 90%	> 3000 nM				N[C@@H](Cc1ccc(OCc2ccccc2)cc1)C(=O)N1CCCN(Cc2ccnc3ccccc23)CC1 [Example 37]
91 to 100%	< 1500 nM				CCCCCOc1ccc(CN2CCN(C(=O)[C@@H](N)Cc3ccc(OCc4ccccc4)cc3)CC2)cc1 [Example 99]
35 to 70%	> 3000 nM				Cc1ccsc1CN1CCN(C(=O)[C@@H](N)Cc2ccc(OCc3ccccc3)cc2)CC1 [Example 128]
	1500 to 3000 nM	+++ (+++ = 91-100)			N[C@@H](Cc1ccc(OCc2c(F)cccc2Cl)cc1)C(=O)N1CCN(Cc2cccc(Cl)c2Cl)CC1 [Example 222]
35 to 70%	> 3000 nM				N[C@@H](Cc1ccc(OCc2ccccc2)cc1)C(=O)N1CCN(Cc2ccco2)CC1 [Example 151]
	< 1500 nM	+++ (+++ = 91-100)			N[C@@H](Cc1ccc(OCCc2ccc(Br)cc2)cc1)C(=O)N1CCN(Cc2cccc(Cl)c2Cl)CC1 [Example 241]
91 to 100%	< 1500 nM				CSc1ccc(-c2ccc(C[C@H](N)C(=O)N3CCN(Cc4cccc(Cl)c4Cl)CC3)cc2)cc1 [Example 295]
91 to 100%	< 1500 nM				N[C@@H](Cc1ccc(OCc2ccccc2)cc1)C(=O)N1CCN(Cc2cccc(Oc3cc(Cl)cc(Cl)c3)c2)CC1 [Example 86]
	< 1500 nM			91 to 100%	N[C@@H](Cc1ccc(-c2ccsc2)cc1)C(=O)N1CCN(Cc2cccc(Cl)c2Cl)CC1 [Example 339]
91 to 100%	1500 to 3000 nM				N[C@@H](Cc1ccc(OCc2ccccc2)cc1)C(=O)N1CCN(CC(c2ccccc2)c2ccccc2)CC1 [Example 102]
35 to 70%	> 3000 nM				COc1ccc(CCC(C)N2CCN(C(=O)[C@@H](N)Cc3ccc(OCc4ccccc4)cc3)CC2)cc1 (stereo partly shown) [Example 132]
	< 1500 nM	+++ (+++ = 91-100)			N[C@@H](Cc1ccc(OCc2ccccc2)cc1)C(=O)N1CCN(Cc2cccc(Cl)c2Cl)CC1 [Example 178]
91 to 100%	1500 to 3000 nM				N[C@@H](Cc1ccc(OCc2ccccc2)cc1)C(=O)N1CCCN(Cc2ccc(-c3ccc(Cl)cc3)o2)CC1 [Example 6]

inhibition at 10 µM [1]	IC50 (read-out: MC4R IC50)	Displacement Rate (%) (at 10 μM) [1]	IC50	inhibition at 10 µM	SMILES
	< 1500 nM	+++ (+++ = 91-100)			N[C@@H](Cc1ccc(OCc2cccc(OCc3ccccc3)c2)cc1)C(=O)N1CCN(Cc2cccc(Cl)c2Cl)CC1 [Example 206]
35 to 70%	> 3000 nM				CC(C)N1CCN(C(=O)[C@@H](N)Cc2ccc(OCc3ccccc3)cc2)CC1 [Example 143]
35 to 70%	> 3000 nM				N[C@@H](Cc1ccc(OCc2ccccc2)cc1)C(=O)N1CCCN(Cc2ccc3c(c2)OCCO3)CC1 [Example 70]
71 to 90%	> 3000 nM				COc1cc(CN2CCN(C(=O)[C@@H](N)Cc3ccc(OCc4ccccc4)cc3)CC2)ccc1OCc1ccccc1 [Example 115]
35 to 70%	> 3000 nM				COc1cc(-c2ccc(C[C@H](N)C(=O)N3CCN(Cc4cccc(Cl)c4Cl)CC3)cc2)cc(OC)c1OC [Example 334]
35 to 70%	> 3000 nM				COc1cc(CN2CCCN(C(=O)[C@@H](N)Cc3ccc(OCc4ccccc4)cc3)CC2)cc(Br)c1OC [Example 59]
35 to 70%	> 3000 nM				CN(C)c1ccc(CN2CCN(C(=O)[C@@H](N)Cc3ccc(OCc4ccccc4)cc3)CC2)c2ccccc12 [Example 137]
91 to 100%	< 1500 nM				N[C@@H](Cc1ccc(OCc2ccccc2)cc1)C(=O)N1CCN(Cc2ccc(Oc3ccccc3)cc2)CC1 [Example 84]
71 to 90%	> 3000 nM				N[C@@H](Cc1ccc(OCc2ccccc2)cc1)C(=O)N1CCN(C2CCC(c3ccccc3)CC2)CC1 (stereo partly shown) [Example 118]
	1500 to 3000 nM				N[C@@H](Cc1ccc(Oc2ccc(Cl)c(Cl)c2)cc1)C(=O)N1CCN(Cc2cccc(Cl)c2Cl)CC1 [Example 346]
	1500 to 3000 nM	+++ (+++ = 91-100)			N[C@@H](Cc1ccc(OCc2cccc(C(F)(F)F)c2)cc1)C(=O)N1CCN(Cc2cccc(Cl)c2Cl)CC1 [Example 187]
	< 1500 nM	+++ (+++ = 91-100)			N[C@@H](Cc1ccc(OCCCCc2ccccc2)cc1)C(=O)N1CCN(Cc2cccc(Cl)c2Cl)CC1 [Example 262]
91 to 100%	< 1500 nM				N[C@@H](Cc1ccc(OCc2ccccc2)cc1)C(=O)N1CCCN(Cc2cccc(Oc3cc(Cl)cc(Cl)c3)c2)CC1 [Example 4]
71 to 90%	> 3000 nM				CCOc1cccc(CN2CCN(C(=O)[C@@H](N)Cc3ccc(OCc4ccccc4)cc3)CC2)c1O [Example 117]
	< 1500 nM	+++ (+++ = 91-100)			N[C@@H](Cc1ccc(OCCc2cccc3ccccc23)cc1)C(=O)N1CCN(Cc2cccc(Cl)c2Cl)CC1 [Example 244]
35 to 70%	> 3000 nM				CC(C)CN1CCN(C(=O)[C@@H](N)Cc2ccc(OCc3ccccc3)cc2)CC1 [Example 146]
	< 1500 nM	+++ (+++ = 91-100)			N[C@@H](Cc1ccc(OCc2ccc(Cl)c(Cl)c2)cc1)C(=O)N1CCN(Cc2cccc(Cl)c2Cl)CC1 [Example 204]
	> 3000 nM	+ (+ = 35-70)			N[C@@H](Cc1ccc(OCc2ccc3c(c2)OCO3)cc1)C(=O)N1CCN(Cc2cccc(Cl)c2Cl)CC1 [Example 235]
71 to 90%	> 3000 nM				CCc1ccc(CN2CCCN(C(=O)[C@@H](N)Cc3ccc(OCc4ccccc4)cc3)CC2)cc1 [Example 38]
